The test system of assay [1] is synthesis of LTB4 in human whole blood. Nature of the assay: Human whole blood LTB4 production inhibition assay. Type of assay: cell-based. The conditions noted are these: heparinized human whole blood, calcimycin 20 μM, plasma LTB4; read-out: HuWB IC50. In short, it runs like this: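 Heparinized human whole blood was preincubated with compound for 15 min at 37° C, then stimulated with calcimycin (20 μM final, in PBS pH 7.4) for a further 30 min at 37° C. Plasma LTB4 was quantified by antibody-based homogeneous time-resolved fluorescence.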

The target of assay [2] is T1, recombinant human FLAP protein (Homo sapiens, UniProt P20292).
T1 construct: made in house; host or cells: Sf9 insect cells (membrane fraction, 100,000 x g pellet)
T1 sequence (P20292 1-161): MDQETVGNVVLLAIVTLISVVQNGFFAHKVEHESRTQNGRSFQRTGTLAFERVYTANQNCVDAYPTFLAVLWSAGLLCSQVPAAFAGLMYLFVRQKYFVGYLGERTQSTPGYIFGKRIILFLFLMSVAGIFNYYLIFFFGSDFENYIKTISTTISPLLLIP
As to the kind of experiment: FLAP binding assay (SPA, displacement of [125I]L-691,831). The conditions noted are these: membranes of sf9 cells expressing human FLAP, [125I]L-691,831 probe; read-out: hFLAP binding IC50. In short, it runs like this: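 Membranes from sf9 cells expressing human FLAP (5 μg/well) were bound to WGA SPA beads (200 μg/well). Nonspecific binding was defined with 10 μM unlabelled L-691,831.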
On the technique in general: In a radioligand displacement assay an active substance lowers the binding of a labelled ligand.

IC50 data for 22 compounds are collected here from patent publication US9073895B2 (Boehringer Ingelheim International GmbH, priority 2010, dated 2015).

What is called IC50 is the concentration that inhibits the measured activity by half. Turning to `Nc1ncc(-c2ccc(C3(C(=O)Nc4ccc(-c5cccnc5)cn4)CCC3)cc2)cn1` [Example 239, 1-[4-(2-aminopyrimidin-5-yl)phenyl]-N-(3,3'-bipyridin-6-yl)cyclobutanecarboxamide], the IC50 in assay [1] turned out to be 144 nM; in assay [2], 2.15 nM.

Consider `CCOC(=O)c1sc2ccc(NC(=O)C3(c4ccc(-c5cnc(N)nc5)cc4)CCOCC3)cc2c1C` [Example 43, ethyl 5-[({4-[4-(2-aminopyrimidin-5-yl)phenyl]tetrahydro-2H-pyran-4-yl}carbonyl)amino]-3-methyl-1-benzothiophene-2-carboxylate], for which the IC50 in assay [1] is more than 3000 nM; in assay [2], 12.3 nM.

As for `Nc1ncc(-c2ccc(C3(C(=O)Nc4ccc(Oc5ccccc5)cn4)CCC3)cc2)cn1` [Example 194, 1-[4-(2-aminopyrimidin-5-yl)phenyl]-N-(5-phenoxypyridin-2-yl)cyclobutanecarboxamide], the IC50 was determined as 577 nM in assay [1] and 19.2 nM in assay [2].

Consider `COc1ccc(NC(=O)C2(c3ccc(-c4cnc(N)nc4)cc3)CCC2)cn1` [Example 213, 1-[4-(2-aminopyrimidin-5-yl)phenyl]-N-(6-methoxypyridin-3-yl)cyclobutanecarboxamide], for which the IC50 in assay [1] is 333 nM; in assay [2] it was 12.6 nM.

With `Nc1ncc(-c2ccc(C3(C(=O)Nc4nc(-c5ccncc5)cs4)CCC3)cc2)cn1` [Example 254, 1-[4-(2-aminopyrimidin-5-yl)phenyl]-N-[4-(pyridin-4-yl)-1,3-thiazol-2-yl]cyclobutanecarboxamide], the IC50 in assay [1] turned out to be 111 nM; in assay [2] it was 1.6 nM.

As to `COC(=O)c1cc(NC(=O)C2(c3ccc(-c4cnc(N)nc4)cc3)CCC2)ccc1O` [Example 97, methyl 5-[({1-[4-(2-aminopyrimidin-5-yl)phenyl]cyclobutyl}carbonyl)amino]-2-hydroxybenzoate], the IC50 turned out to be 4100 nM in assay [1] and 4.85 nM in assay [2].

Regarding `COc1cncc(-c2ccc(NC(=O)C3(c4ccc(-c5cnc(N)nc5)cc4)CCOCC3)nc2)c1` [Example 135, 4-[4-(2-aminopyrimidin-5-yl)phenyl]-N-(5'-methoxy-3,3'-bipyridin-6-yl)tetrahydro-2H-pyran-4-carboxamide], the values for the IC50 in assay [1] and in assay [2] were 738 nM and 11.1 nM, respectively.

`CC(C)(C(=O)Nc1ccccn1)c1ccc(-c2cnc(N)nc2)cc1` [Example 158, 2-[4-(2-aminopyrimidin-5-yl)phenyl]-2-methyl-N-(pyridin-2-yl)propanamide]: the half-maximal inhibitory concentration (IC50) in assay [1] turned out to be 5270 nM; in assay [2], 36 nM.

For `COc1cncc(-c2ccc(NC(=O)C3(c4ccc(-c5cnc(N)nc5)cc4)CCC3)nc2)c1` [Example 130, 1-[4-(2-aminopyrimidin-5-yl)phenyl]-N-(5'-methoxy-3,3'-bipyridin-6-yl)cyclobutanecarboxamide], the IC50 in assay [1] turned out to be 224 nM; in assay [2], 1.52 nM.

For `Nc1ncc(-c2ccc(C3(C(=O)Nc4cnccn4)CCC3)cc2)cn1` [Example 214, 1-[4-(2-aminopyrimidin-5-yl)phenyl]-N-(pyrazin-2-yl)cyclobutanecarboxamide], the IC50 in assay [1] amounted to 1070 nM; in assay [2] it was 24 nM.

With `COc1cncc(-c2ccc(NC(=O)C(C)(c3ccc(-c4cnc5c(c4)CCN5)cc3)C(C)C)nc2)c1` (centres unmarked) [Example 165, 2-[4-(2,3-dihydro-1H-pyrolo[2,3-b]pyridin-5-yl)phenyl]-N-(5'-methoxy-3,3'-bipyridin-6-yl)-2,3-dimethylbutanamide], the IC50 stood at 354 nM in assay [1] and 1.4 nM in assay [2].

Take `Nc1ncc(-c2ccc(C3(C(=O)Nc4ccc(O)nc4)CCC3)cc2)cn1` [Example 221, 1-[4-(2-aminopyrimidin-5-yl)phenyl]-N-(6-hydroxypyridin-3-yl)cyclobutanecarboxamide]: the IC50 is more than 3000 nM in assay [1] and 290 nM in assay [2].

Consider `CN1CCc2nc(NC(=O)C3(c4ccc(-c5cnc(N)nc5)cc4)CCC3)sc2C1` [Example 234, 1-[4-(2-aminopyrimidin-5-yl)phenyl]-N-(5-methyl-4,5,6,7-tetrahydro[1,3]thiazolo[5,4-c]pyridin-2-yl)cyclobutanecarboxamide], for which the values for the IC50 in assay [1] and in assay [2] were 858 nM and 32.5 nM, respectively.

In the case of `COc1ccc(-c2ccc(NC(=O)C3(c4ccc(-c5cnc(N)nc5)cc4)CCOCC3)nc2)cn1` [Example 134, 4-[4-(2-aminopyrimidin-5-yl)phenyl]-N-(6'-methoxy-3,3'-bipyridin-6-yl)tetrahydro-2H-pyran-4-carboxamide], the results for the IC50 in assay [1] and in assay [2] were 651 nM and 17.5 nM, respectively.

Consider `Nc1ncc(-c2ccc(C3(C(=O)Nc4nc(-c5ccccc5)ns4)CCOCC3)cc2)cn1` [Example 36, 4-[4-(2-aminopyrimidin-5-yl)phenyl]-N-(3-phenyl-1,2,4-thiadiazol-5-yl)tetrahydro-2H-pyran-4-carboxamide], for which the IC50 is more than 3000 nM in assay [1] and 13.3 nM in assay [2].

`Nc1ncc(-c2ccc(C3(C(=O)Nc4ccc(Oc5ccccc5)cc4)CCOCC3)cc2)cn1` [Example 1, 4-[4-(2-aminopyrimidin-5-yl)phenyl]-N-(4-phenoxyphenyl)tetrahydro-2H-pyran-4-carboxamide]: the IC50 in assay [1] was 461 nM; in assay [2] it was 16 nM.

With `Nc1ncc(-c2ccc(C3(C(=O)Nc4cc(-c5ccncc5)no4)CCOCC3)cc2)cn1` [Example 58, 4-[4-(2-aminopyrimidin-5-yl)phenyl]-N-[3-(pyridin-4-yl)-1,2-oxazol-5-yl]tetrahydro-2H-pyran-4-carboxamide], the IC50 in assay [1] is more than 3000 nM; in assay [2] it was 170 nM.

For `Cn1cc(NC(=O)C2(c3ccc(-c4cnc(N)nc4)cc3)CCC2)cn1` [Example 110, 1-[4-(2-aminopyrimidin-5-yl)phenyl]-N-(1-methyl-1H-pyrazol-4-yl)cyclobutanecarboxamide], the IC50 in assay [1] amounted to 1100 nM; in assay [2], 120 nM.

For `Nc1ncc(-c2ccc(C3(C(=O)Nc4ccc(-c5cn[nH]c5)cn4)CCC3)cc2)cn1` [Example 104, 1-[4-(2-aminopyrimidin-5-yl)phenyl]-N-[5-(1H-pyrazol-4-yl)pyridin-2-yl]cyclobutanecarboxamide], the figures for the IC50 in assay [1] and in assay [2] were 155 nM and 1.95 nM, respectively.

As to `Nc1ncc(-c2ccc(C3(C(=O)Nc4ccc(-c5cccnc5)cc4)CCOCC3)cc2)cn1` [Example 45, 4-[4-(2-aminopyrimidin-5-yl)phenyl]-N-[4-(pyridin-3-yl)phenyl]tetrahydro-2H-pyran-4-carboxamide], the IC50 worked out at 459 nM in assay [1] and 6.2 nM in assay [2].

Take `Cc1nnnn1-c1ccc(NC(=O)C2(c3ccc(-c4cnc(N)nc4)cc3)CCOCC2)cc1` [Example 4, 4-[4-(2-aminopyrimidin-5-yl)phenyl]-N-[4-(5-methyl-1H-tetrazol-1-yl)phenyl]tetrahydro-2H-pyran-4-carboxamide]: the IC50 in assay [1] turned out to be 808 nM; in assay [2], 38.5 nM.

For the compound `Nc1ncc(-c2ccc(C3(C(=O)Nc4cnc(-c5ccccc5)nc4)CCOCC3)cc2)cn1` [Example 65, 4-[4-(2-aminopyrimidin-5-yl)phenyl]-N-(2-phenylpyrimidin-5-yl)tetrahydro-2H-pyran-4-carboxamide], the IC50 in assay [1] was 905 nM; in assay [2] it was 14 nM.
